From PubChem BioAssay AID1159565 (GlaxoSmithKline (GSK), 2015) come the findings set out here.

The structures appear in SMILES notation.

In the first assay the test system is T. cruzi-infected H9C2 cardiomyocytes, high-content imaging. Put plainly: intracellular T. cruzi amastigote inhibition, imaging, H9C2 host cardiomyocytes, host toxicity (AID 1159565).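 Further: infected cells incubated 72 h after plating.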 To be noted: measured here: H9C2 host cell toxicity.
The compound `O=c1ccc2ccc(F)c3c2n1C[C@H]3CN1CCC(NCc2cc3ccccc3o2)CC1` displayed an IC50 of 32 µM. This lies in the double-digit micromolar range. On the same count and under the same terms, next, `CN1C(=O)c2ccccc2Sc2ccc(NC(=O)NCc3ccco3)cc21`: 25 µM; `Fc1ccc(Nc2nc(-c3ccccn3)cs2)cc1`: 1 µM; `COc1cc(F)c2ncc(F)c(CCN3CC[C@H](NCc4cc5c(cn4)OCS5)[C@@H](O)C3)c2c1`: greater than 50 µM. As to `CC(C)CC(=O)NC(c1cccs1)c1ccc2cccnc2c1O` (stereo not drawn), the IC50 was 2 µM. In turn, `O=C(CCc1ccc(-c2ccccc2)o1)N1CCN(c2ccc(O)cc2)CC1` had an IC50 greater than 50 µM. On the same count and under the same terms, next, `O=C(CN1CCN(c2ccccn2)CC1)Nc1cc(S(=O)(=O)N2CCCCCC2)ccc1Cl`: greater than 50 µM. `COc1cccc2sc(CN(C)C(=O)C3CNCCN3c3ccc(F)cc3)c(C)c12` (stereo not drawn) gave an IC50 of 7.9 µM. This lies in the single-digit micromolar range. `CCc1cc(C(=O)Nc2nccn2-c2ccccc2)cs1` returned an IC50 of 20 µM. Take `CC1CN(S(=O)(=O)c2ccc(NC(=O)c3cc(C4CC4)nc4c3cnn4C(C)C)cc2)CC(C)O1` (stereo not drawn): the IC50 is greater than 50 µM. As for `O=C(c1ccc(OCCCc2cnc[nH]2)cc1)C1CC1`, the IC50 is greater than 50 µM. On the same count and under the same terms, under `CCN(CC)c1nc(N(C)C)nc2c1CN(Cc1ccccc1)CC2` stands greater than 50 µM. `CN(C)Cc1ccc(N2CCC(NS(=O)(=O)c3ccc(Cl)cc3)CC2)cc1` showed an IC50 of 13 µM.

On to `CCCCn1nnnc1CSc1nc(C)cc(C)c1C#N`, for which the IC50 is greater than 50 µM. Compound `O=C(NCCc1csc(-c2ccc(F)cc2)n1)c1cccs1` yielded a half-inhibitory concentration (IC50) greater than 50 µM. Turning to `N#Cc1cccc(Nc2nccc(N3CCC(NS(=O)(=O)c4cccc(C#N)c4)CC3)n2)c1`, the IC50 came to 32 µM. Still for that read-out and setting: next, `Cc1ccc(S(=O)(=O)Nc2ccc(CN3CCN(C(=O)c4cccc(C)c4)CC3)cc2)cc1`: greater than 50 µM; `Cn1nc([N+](=O)[O-])nc1N1CCCCC1`: greater than 50 µM. Compound `Cc1sc(C)c(C(F)(F)F)c1CNCCCNc1cc(=O)c2ccccc2[nH]1` registered an IC50 greater than 50 µM. For the compound `CC(C)Nc1nc(Cl)nc2ccccc12`, the IC50 amounted to 7.9 µM.

The compound `CC(=O)NC1(c2ccccc2)CCN(CC(=O)Nc2ccccc2-c2ccccc2)CC1` yielded an IC50 greater than 50 µM. The same measure, in the same setting: under `Cc1nn(C)c(Cl)c1CN(Cc1cccnc1)Cc1ccsc1` stands greater than 50 µM; under `COc1cc2c(cc1OC)[C@H]1[C@@H](C)c3ccc(OC)c(OC)c3CN1CC2`, greater than 50 µM. `Nc1nc(-c2ccccn2)nc(-n2nc(-c3ccccc3)cc2N)n1` registered an IC50 of 2 µM. Regarding `Cc1nc(-c2ccncc2)ncc1C(C)NC(=O)c1ccc(Cl)s1` (stereo not drawn), the IC50 is greater than 50 µM.

With `CCOC(=O)c1cn[nH]c1S(=O)(=O)N1CCC1c1ccccc1` (stereo not drawn), the IC50 was greater than 50 µM. `O=C(NCCc1cccnc1)c1csc(-c2ccccc2)n1`: the IC50 is greater than 50 µM. `CCn1c(NC(=O)Cc2ccc(F)cc2)nc2ccccc21`: the IC50 is greater than 50 µM.

Still in this assay, the particulars now being: measured here: amastigotes per cell.
Compound `COc1ccc(S(=O)(=O)Nc2ccc(CN3CCN(C(=O)c4cccc(C#N)c4)CC3)cc2)cc1` showed an IC50 of 0.79 µM. This counts as sub-micromolar. `N#Cc1cc(-c2ccnc(Nc3cccc(CN4CCOCC4)c3)n2)ccc1NCCN` returned an IC50 of 16 µM. For the compound `Cc1nc(C(=O)Nc2ccc3c(c2)OCO3)nn1-c1ccc(Cl)cc1`, the IC50 amounted to 1 µM.

In turn, `CC(C)(C)C(O)(CCc1ccc(Cl)cc1)Cn1cncn1` (stereo not drawn) returned an IC50 of 0.2 µM. As to `COc1ccc(S(=O)(=O)Nc2ccccc2OC)cc1NC(=O)CCCc1c[nH]c2ccccc12`, the IC50 stood at 1 µM. In turn, `O=C(C1CCCCC1)N1CCN(c2nnc(-c3ccccc3)c3ccccc23)CC1` gave an IC50 of 0.4 µM. This IC50 lies about 2.5-fold lower than the previous one. For `COCCn1cnc2cc(NC(=O)C3CCCCC3)cc(C(=O)N3CCc4sccc4C3)c21`, the IC50 amounted to 20 µM. `CCN(Cc1nc2ccc(C(=O)N3CCN(c4ncccn4)CC3)cc2[nH]1)C1CCCc2cccnc21` (stereo not drawn) registered an IC50 of 2 µM. Against the preceding compound, the IC50 is about 10-fold lower. As to `Cc1nn(-c2ccccc2)nc1CNC(=O)CN(Cc1ccccn1)Cc1ccccn1`, the IC50 amounted to 3.2 µM. `Cc1cccnc1CN1CCN(CCCOc2ccc(-c3ccc(C(N)=O)cc3)cc2)CC1` registered an IC50 of 0.4 µM. This IC50 lies about 8-fold lower than the previous one. The compound `COc1ccc(C(=O)Nc2c(C)nn(COc3cccc(C(F)(F)F)c3)c2C)cc1` came in with an IC50 of 25 µM.

`c1ccc(Nc2nc3ccccc3[nH]2)nc1`: the IC50 amounted to 10 µM. In turn, `CCN(C)Cc1ccc(N2CCC(NS(=O)(=O)c3ccc4c(c3)CCO4)CC2)nc1` registered an IC50 of 1 µM. With `COc1ccc2ncc(F)c(CCN3CC[C@@H](NC(=O)c4cc5c(s4)CCC5)[C@@H](O)C3)c2n1`, the IC50 stood at 0.05 µM. For `COc1ccccc1C=CCN1C[C@H]2CCC[C@@H](C1)C2(O)c1cccnc1` (stereo partly drawn), the IC50 turned out to be 0.04 µM. As for `O=C(NCC(c1cccnc1)N1CCc2ccccc2C1)C(=O)Nc1cccc(Cl)c1` (stereo not drawn), the IC50 came out at 0.063 µM. This IC50 is about 1.6-fold higher than that of the compound before. For the compound `CS(=O)(=O)NC1CCC(Oc2cc3cnccc3cc2-c2ccsc2)CC1` (stereo not drawn), the IC50 came out at 0.1 µM. For the compound `COc1ccc(CNc2cc(C3CC3)nc(-c3nccn3C)n2)cc1`, the IC50 amounted to 0.63 µM. `CCN(CC)S(=O)(=O)c1ccc(OC)c(NC(=O)c2ccc([N+](=O)[O-])s2)c1` registered an IC50 of 0.13 µM. Regarding `COc1ccc2nccc(NC(=O)C3(OC)CCN(CC(O)c4ccc5c(c4)OCCO5)CC3)c2n1` (stereo not drawn), the IC50 was 0.13 µM. With `CC(C)(C)c1csc(NC(=O)c2ccc([N+](=O)[O-])s2)n1`, the IC50 is 0.2 µM. The compound `CCc1c(C)nc(-n2nc(C)cc2NC(=O)COc2ccccc2F)[nH]c1=O` gave an IC50 of 0.16 µM. Turning to `Nc1nonc1-c1nc2cncc(C(=O)N3CC[C@H](N)C3)c2n1CC1CC1`, the IC50 turned out to be 13 µM. This IC50 lies about 81-fold higher than the previous one. On to `O=C1CN(C2CCCc3c(OCc4ccncc4)cccc32)C(=O)N1C1CCCCC1` (stereo not drawn), for which the IC50 was determined as 0.013 µM. As to `O=C(NC(CO)c1ccc(F)cc1)c1ccc(-c2c[nH]c3ncccc23)s1` (stereo not drawn), the IC50 came to 13 µM. The same measure, in the same setting: next, `COc1ccc(-c2cc(C)no2)cc1S(=O)(=O)Nc1ccc(C)c(C)c1`: 5 µM; `COc1ccc(-c2csc(NC(=O)c3ccc([N+](=O)[O-])s3)n2)cc1`: 0.2 µM; `O=c1ccc2ccc(F)c3c2n1C[C@H]3CN1CCC(NCc2cc3ccccc3o2)CC1`: 0.13 µM. Consider `CN1C(=O)c2ccccc2Sc2ccc(NC(=O)NCc3ccco3)cc21`, for which the IC50 was 6.3 µM.

Compound `Fc1ccc(Nc2nc(-c3ccccn3)cs2)cc1` came in with an IC50 of 5 µM. On to `COc1cc(F)c2ncc(F)c(CCN3CC[C@H](NCc4cc5c(cn4)OCS5)[C@@H](O)C3)c2c1`, for which the IC50 came out at 0.2 µM. The compound `CC(C)CC(=O)NC(c1cccs1)c1ccc2cccnc2c1O` (stereo not drawn) gave an IC50 of 0.79 µM. The same measure, in the same setting: under `O=C(CCc1ccc(-c2ccccc2)o1)N1CCN(c2ccc(O)cc2)CC1` stands 0.79 µM. `O=C(CN1CCN(c2ccccn2)CC1)Nc1cc(S(=O)(=O)N2CCCCCC2)ccc1Cl` yielded an IC50 of 6.3 µM.

Compound `COc1cccc2sc(CN(C)C(=O)C3CNCCN3c3ccc(F)cc3)c(C)c12` (stereo not drawn) showed an IC50 of 0.16 µM.

As for `CCc1cc(C(=O)Nc2nccn2-c2ccccc2)cs1`, the IC50 is 3.2 µM. As for `CC1CN(S(=O)(=O)c2ccc(NC(=O)c3cc(C4CC4)nc4c3cnn4C(C)C)cc2)CC(C)O1` (stereo not drawn), the IC50 is 0.63 µM. The same measure, in the same setting: under `O=C(c1ccc(OCCCc2cnc[nH]2)cc1)C1CC1` stands 1.3 µM; under `CCN(CC)c1nc(N(C)C)nc2c1CN(Cc1ccccc1)CC2`, 4 µM; under `CN(C)Cc1ccc(N2CCC(NS(=O)(=O)c3ccc(Cl)cc3)CC2)cc1`, 0.25 µM. Regarding `CCCCn1nnnc1CSc1nc(C)cc(C)c1C#N`, the IC50 came out at 0.1 µM.

Compound `O=C(NCCc1csc(-c2ccc(F)cc2)n1)c1cccs1` came in with an IC50 of 0.25 µM. As for `N#Cc1cccc(Nc2nccc(N3CCC(NS(=O)(=O)c4cccc(C#N)c4)CC3)n2)c1`, the IC50 is 3.2 µM. For `Cc1ccc(S(=O)(=O)Nc2ccc(CN3CCN(C(=O)c4cccc(C)c4)CC3)cc2)cc1`, the IC50 worked out at 0.32 µM.

On to `Cn1nc([N+](=O)[O-])nc1N1CCCCC1`, for which the IC50 stood at 1 µM. Against the preceding compound, the IC50 is about 3.1-fold higher. As for `Cc1sc(C)c(C(F)(F)F)c1CNCCCNc1cc(=O)c2ccccc2[nH]1`, the IC50 worked out at 0.5 µM. This IC50 is about 2-fold lower than that of the compound before. Compound `CC(C)Nc1nc(Cl)nc2ccccc12` yielded an IC50 of 4 µM.

Consider `CC(=O)NC1(c2ccccc2)CCN(CC(=O)Nc2ccccc2-c2ccccc2)CC1`, for which the IC50 was 1.6 µM. Compound `Cc1nn(C)c(Cl)c1CN(Cc1cccnc1)Cc1ccsc1` came in with an IC50 of 0.32 µM. Take `COc1cc2c(cc1OC)[C@H]1[C@@H](C)c3ccc(OC)c(OC)c3CN1CC2`: the IC50 was determined as 20 µM.

`Nc1nc(-c2ccccn2)nc(-n2nc(-c3ccccc3)cc2N)n1` had an IC50 of 0.32 µM. Compared with the last compound, the IC50 is about 62-fold lower. Take `Cc1nc(-c2ccncc2)ncc1C(C)NC(=O)c1ccc(Cl)s1` (stereo not drawn): the IC50 stood at 20 µM.

`CCOC(=O)c1cn[nH]c1S(=O)(=O)N1CCC1c1ccccc1` (stereo not drawn) returned an IC50 greater than 50 µM. For the compound `O=C(NCCc1cccnc1)c1csc(-c2ccccc2)n1`, the IC50 came to 0.4 µM. This counts as sub-micromolar. For `CCn1c(NC(=O)Cc2ccc(F)cc2)nc2ccccc21`, the IC50 is 4 µM.

As usually defined, the IC50 is the point on the concentration scale where inhibition reaches its midpoint.
